Values of other authors as cited in patent US20120040397A1, “Photo-Crosslinked Nucleic Acid Hydrogels” (priority 2008, published 2012).

Columns and labels:
[1] = molecular target: T1, PPAR-gamma (Homo sapiens, UniProt P37231); settings: context-specific, depends on cell type
T1 sequence (P37231 1-505): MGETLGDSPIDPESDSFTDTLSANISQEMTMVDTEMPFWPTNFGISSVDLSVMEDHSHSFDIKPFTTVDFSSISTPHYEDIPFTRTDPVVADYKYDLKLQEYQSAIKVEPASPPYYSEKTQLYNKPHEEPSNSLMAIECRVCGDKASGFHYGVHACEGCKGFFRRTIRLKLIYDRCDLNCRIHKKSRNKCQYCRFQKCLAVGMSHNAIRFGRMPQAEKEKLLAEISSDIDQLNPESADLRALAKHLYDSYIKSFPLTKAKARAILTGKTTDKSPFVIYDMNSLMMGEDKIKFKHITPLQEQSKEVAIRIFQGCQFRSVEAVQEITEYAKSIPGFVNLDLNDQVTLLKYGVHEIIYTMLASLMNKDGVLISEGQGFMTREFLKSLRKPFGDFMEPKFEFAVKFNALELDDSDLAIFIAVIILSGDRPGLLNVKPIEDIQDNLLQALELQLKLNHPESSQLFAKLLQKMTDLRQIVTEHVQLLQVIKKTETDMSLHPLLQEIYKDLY

[2] = in vivo

O=C1NC(=O)C(Cc2ccc3cc(OCc4ccccc4F)ccc3c2)S1 (stereo not drawn) [netoglitazone, 5-[{6-(2-fluorobenzyl)oxy-2-naphthyl}methyl]-2,4-thiazolidinedione]
PPAR-gamma modulation [1]: full agonist of PPAR-gamma and as a partial agonist or antagonist in others | efficacy in lowering plasma glucose, insulin, and triglyceride levels versus pioglitazone and troglitazone [2]: more efficacious | potency relative to rosiglitazone [2]: about three-fold
